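Values below derive from 48-hour exposures of cells grown in 96-well plates, with endpoints linearly interpolated between the two concentrations bracketing the appropriate inhibition level. The concentration for 50% growth inhibition is given as GI50. At the TGI there is no net growth.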
Tests used:
Assay in all cases: inhibition of tumour cell growth, NCI panel, 48 h
SK-MEL-5 melanoma = system: SK-MEL-5 melanoma
MOLT-4 leukemia = system: MOLT-4 leukemia
HCT-116 colon = system: HCT-116 colon
OVCAR-8 ovarian = system: OVCAR-8 ovarian
SF-268 CNS = system: SF-268 CNS
K-562 leukemia = system: K-562 leukemia
HT29 colon = system: HT29 colon
KM12 colon = system: KM12 colon
MALME-3M melanoma = system: MALME-3M melanoma
HL-60(TB) leukemia = system: HL-60(TB) leukemia

| Compound | TGI (SK-MEL-5 melanoma) [µM] | TGI (MOLT-4 leukemia) [µM] | TGI (HCT-116 colon) [µM] | TGI (OVCAR-8 ovarian) [µM] | TGI (SF-268 CNS) [µM] | TGI (K-562 leukemia) [µM] | TGI (HT29 colon) [µM] | TGI (KM12 colon) [µM] | TGI (MALME-3M melanoma) [µM] | TGI (HL-60(TB) leukemia) [µM] | GI50 (SK-MEL-5 melanoma) [µM] | GI50 (MOLT-4 leukemia) [µM] | GI50 (HCT-116 colon) [µM] | GI50 (OVCAR-8 ovarian) [µM] | GI50 (SF-268 CNS) [µM] | GI50 (K-562 leukemia) [µM] | GI50 (HT29 colon) [µM] | GI50 (KM12 colon) [µM] | GI50 (MALME-3M melanoma) [µM] | GI50 (HL-60(TB) leukemia) [µM] |
| --- | --- | --- | --- | --- | --- | --- | --- | --- | --- | --- | --- | --- | --- | --- | --- | --- | --- | --- | --- | --- |
| C[C@]12CCC3=NCCN3C1=CC[C@@H]1[C@@H]2CC[C@@]2(C)[C@H]1CC[C@]2(C)O | 35.6 | > 100 | > 100 | > 100 | > 100 | > 100 | > 100 | > 100 | 53.5 |  |  |  |  |  |  |  |  |  |  |  |
| COC(=O)C1CCC(=O)N1/C(C)=N/NC(=O)Nc1ccc(Cl)c(Cl)c1 (stereo not given) | > 100 | > 100 | > 100 | > 100 | > 100 | > 100 |  | > 100 |  | > 100 |  |  |  |  |  |  |  |  |  |  |
| CCOc1ccccc1NC(=O)C1=C(C)NC(C)=C(C(=O)Nc2ccccc2OCC)C1c1ccc([N+](=O)[O-])cc1 |  |  | > 100 |  | > 100 |  | > 100 | > 100 | > 100 | > 100 |  |  |  |  |  |  |  |  |  |  |
| C/C(CC(=O)Nc1cccc([N+](=O)[O-])c1)=N\NC(=O)C[n+]1ccccc1 | > 100 | > 100 | > 100 | > 100 | > 100 |  | > 100 | > 100 | > 100 | > 100 |  |  |  |  |  |  |  |  |  |  |
| O=C(OC[C@@H]1CO1)c1cccc2c(=O)c3ccccc3[nH]c12 | 0.473 |  | 10.1 | 2.78 | 1.01 | > 100 | 3.17 | 0.771 | 1.76 |  | 0.21 | 0.0531 | 0.127 | 0.166 | 0.172 | 0.24 | 0.311 | 0.245 | 0.472 |  |
| c1cncc(C2ONC3=NCCN32)c1 (stereo not given) | > 100 | 56.6 | > 100 | > 100 | > 100 | > 100 | > 100 | > 100 | 91.4 |  | 23.6 | 28.4 | 34.6 | 27.4 | 21.7 | 35.6 | 35.1 | 21.2 | 5.17 |  |
| COc1cc2cc3c(c(O)c2c(O)c1-c1c(OC)cc2cc4c(c(O)c2c1O)C(=O)O[C@H](C)C4)C(=O)O[C@H](C)C3 | 39.1 | > 100 | 43 | > 100 | 37.9 | > 100 | > 100 | > 100 |  | > 100 | 21.8 | > 100 | 20.3 | 33.5 | 14.1 | > 100 | 37.5 | 38.8 |  | 95.9 |
| COc1ccc(-c2cc(-c3ccccc3)nc(NCCNc3ccnc4cc(Cl)ccc34)n2)cc1 | 3.3 |  |  |  | 3.62 | 1.03 | 3.43 | 3.52 | 3.42 | 3.62 | 1.79 |  |  |  | 1.78 | 0.323 | 1.72 | 1.84 | 1.7 | 1.72 |
| COC(=O)[C@]1(C)CCC[C@]2(C)[C@@H]1CCC13C[C@@H](C=CO1)[C@@H](C)CC32O (stereo not given in full) | > 100 | > 100 | > 100 | > 100 | > 100 | > 100 | > 100 |  |  | > 100 | 34 | 24.5 | 7.89 | > 100 | > 100 | 36.7 | 11 |  |  | 45.4 |
| CCOc1ccc(Nc2nc(-c3c(C)nc4ncccn34)cs2)cc1 | 1.96 | 20.4 | 11.6 | 15.9 | 19.5 | > 100 |  | 13.8 |  | 0.0706 | 0.0453 | 0.0539 | 0.0221 | 0.0401 | 1.53 | < 0.01 |  | 0.034 |  | 0.0216 |
| N#CCC1(n2cc(-c3ncnc4[nH]ccc34)cn2)CN(C2CCN(C(=O)c3ccnc(C(F)(F)F)c3F)CC2)C1 | > 100 | > 100 |  | > 100 | > 100 | > 100 | > 100 | > 100 | > 100 | > 100 | 65.3 | 49.9 |  | > 100 | > 100 | 99.2 | > 100 | 36.1 | > 100 | > 100 |
| O=C(c1ccccc1)C(Br)C(Br)c1ccccc1 (stereo not given) | 25.6 |  | 3.32 | 13.3 | 24.8 |  |  | 11.3 | 4.31 |  | 12.6 |  | 1.73 | 4.12 | 9.37 |  |  | 3.5 | 2.02 |  |
| CCN(CC)CCOc1ccc2c(C)c(C(=O)OC)oc2c1C(=O)/C=C/c1ccc(OC)cc1 | 37.2 | 6.58 | > 100 | 40.1 | > 28.1 | > 20.1 | 13 | 3.96 |  | 6.11 | 20.4 | 1.54 | 57.8 | 20.2 | 3.75 | 1.13 | 1.9 | 1.76 |  | 1.94 |
| NC(N)=N/N=C/c1c(-c2ccc(Cl)c([N+](=O)[O-])c2)nc2sc3ccccc3n12 | 1.95 |  | 8.97 | 2.76 |  | > 50 | > 50 | 2.54 |  |  | 0.952 |  | 0.02 | 1.19 |  | 0.209 | 1.93 | 0.842 |  |  |
| NC(=O)c1ncn(C2OC(CO)C(O)C2O)c1N (stereo not given) | > 100 |  | > 100 | > 100 | > 100 |  | > 100 | > 100 | > 100 |  | > 100 |  | > 100 | 62.2 | > 100 |  | > 100 | > 100 | > 100 |  |
| C=C1CC/C=C(\C)CC[C@H](C(=C)C)[C@@H](O)/C=C(/CO)CCC1O (stereo not given in full) | > 100 | 53.6 | > 100 | > 100 | > 100 | 69.7 | > 100 | > 100 |  |  | 35.1 | 24 | 35.4 | > 100 | 78.4 | 24.5 | > 100 | 4.58 |  |  |
| O=C(Oc1ccc2c(c1)CN(Cc1ccccc1)CO2)c1ccccc1 | 31.1 | 54.1 | 30.6 | 32.9 | 33 | 49.6 | 40.8 | 44.7 | 33.9 |  |  |  |  |  |  |  |  |  |  |  |
| CCCCCCCCCCCCCCC(C)CCC(=O)O (stereo not given) | > 100 |  | > 100 | > 100 | > 100 |  | > 100 | > 100 | > 100 |  |  |  |  |  |  |  |  |  |  |  |
| C=CCN=C(N/N=C/c1ccc([N+](=O)[O-])o1)NS(=O)(=O)c1cc(C(=O)Nc2ccccc2)c(Cl)cc1SCC(N)=O | 18.3 | 43.9 | 49 | > 100 | > 100 | 49.8 | > 100 | 32.5 |  |  | 5.45 | 13.4 | 20.2 | 29.6 | 29 | 9.16 | 40.8 | 17.1 |  |  |
| COc1cc(/C=C\c2cc(OC)c(OC)c(OC)c2)cc(NS(=O)(=O)c2ccc(Cl)cc2)c1OC | 1.17 | 31.9 | > 100 | > 100 | > 100 | 34.6 | 10.2 | > 100 |  | 0.694 | 0.297 | 0.672 | 0.469 | 0.6 | 1.1 | 0.306 | 0.348 | 0.572 |  | 0.249 |
| N#CC(NC(=O)CCl)=C(Cl)Cl | 3.27 |  | 3.7 | 6.08 | 4.66 | 2.71 | 3.44 | 4.17 | 3.02 |  | 1.57 |  | 1.02 | 2.21 | 1.97 | 0.595 | 1.76 | 1.88 | 1.49 |  |
| OCC#Cc1ccccc1C#Cc1ccc(C#Cc2ccccc2)cc1 | 25.8 | 43.5 | 32.3 | 57 | > 100 | 26.3 | 33.5 | 34.3 |  | > 100 | 11.8 | 2.65 | 16.6 | 23.1 | 23.7 | 3.92 | 12.7 | 17.3 |  | 0.489 |
| Nc1ncc(C2[C@H](CNC(=O)c3cc(Br)c[nH]3)C(CNC(=O)c3cc(Br)c[nH]3)[C@@H]2c2cnc(N)[nH]2)[nH]1 (stereo not given in full) | > 50 | > 50 | > 50 | > 50 | > 50 | > 50 |  | > 50 | > 50 |  | > 50 | 48.4 | > 50 | > 50 | > 50 | 48.1 |  | > 50 | > 50 |  |
| NNC(=O)N/N=C1\CN(c2ccc(Cl)cc2Cl)C(=O)C(=O)C1c1nc2ccccc2o1 (stereo not given) | > 100 | > 100 | > 100 | > 100 | > 100 | > 100 | > 100 | > 100 | > 100 |  |  |  |  |  |  |  |  |  |  |  |

Reference: PubChem BioAssay (NCI)
